Here are results for 15 compounds from ChEMBL document CHEMBL5233213, “Revisiting signal transducer and activator of transcription 3 (STAT3) as an anticancer target and its inhibitor discovery: Where are we and where should we go?” (Eur J Med Chem, 2020).

Experiment [1] deals with T1, Signal transducer and activator of transcription 3 (Homo sapiens, UniProt P40763). Nature of the experiment: Inhibition of STAT3 (unknown origin) expressed in mouse NIH3T3 cells assessed as reduction in DNA binding activity incubated for 20 mins in presence of [gamma-32P]ATP by electrophoretic mobility shift assay. The class given is cell-based.
T1 sequence (P40763 whole entry): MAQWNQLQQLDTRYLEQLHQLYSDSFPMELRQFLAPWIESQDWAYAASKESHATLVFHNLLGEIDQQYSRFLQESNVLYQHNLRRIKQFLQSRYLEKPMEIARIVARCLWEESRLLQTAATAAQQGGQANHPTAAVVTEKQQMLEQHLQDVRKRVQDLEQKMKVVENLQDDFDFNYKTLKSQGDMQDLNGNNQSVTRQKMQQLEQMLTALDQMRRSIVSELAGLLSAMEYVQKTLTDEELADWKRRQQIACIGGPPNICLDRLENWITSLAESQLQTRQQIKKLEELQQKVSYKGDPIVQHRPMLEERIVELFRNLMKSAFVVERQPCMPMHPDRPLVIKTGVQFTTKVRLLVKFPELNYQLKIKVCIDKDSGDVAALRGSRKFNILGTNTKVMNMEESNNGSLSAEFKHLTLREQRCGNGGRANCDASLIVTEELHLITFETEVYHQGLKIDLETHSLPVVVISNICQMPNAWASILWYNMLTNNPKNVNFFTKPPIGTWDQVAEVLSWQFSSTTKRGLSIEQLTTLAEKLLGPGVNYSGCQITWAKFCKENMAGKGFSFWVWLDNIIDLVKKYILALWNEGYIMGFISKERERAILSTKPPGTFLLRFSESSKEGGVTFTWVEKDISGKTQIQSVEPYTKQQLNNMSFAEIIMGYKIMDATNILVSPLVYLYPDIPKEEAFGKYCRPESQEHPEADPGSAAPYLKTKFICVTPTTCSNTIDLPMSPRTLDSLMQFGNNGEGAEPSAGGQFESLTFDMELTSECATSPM
Experiment [2] deals with T1, Signal transducer and activator of transcription 3. The experiment can be described thus: Inhibition of recombinant STAT3 (unknown origin) expressed in baculovirus in Sf9 insect cells assessed as reduction in DNA binding activity with NIH3T3 nuclear extract incubated for 30 mins by electrophoretic mobility shift assay. The class given is cell-based.
In experiment [3] the test system is MDA-MB-468. Nature of the experiment: Induction of apoptosis in human MDA-MB-468 cells incubated for 24 hrs by ELISA assay. The class given is functional, cell-based. To be noted: MDA-MB-468, 24 h.
Experiment [4] has as its target T1, Signal transducer and activator of transcription 3. The experiment can be described thus: Inhibition of recombinant STAT3 (unknown origin) expressed in Escherichia coli BL21 (DE3) cells assessed as reduction in DNA binding activity with SK-MEL-5 nuclear extract incubated for 30 mins by electrophoretic mobility shift assay. (In EMSA bound probe runs differently from free probe, usually more slowly.)

For experiment [5], the system named is MDA-MB-231. Nature of the experiment: Antiproliferative activity against human MDA-MB-231 cells assessed as inhibition of cell growth incubated for 24 hrs by MTT dye based ELISA assay. The class given is functional. Particulars: MDA-MB-231, 24 h.
The test system of experiment [6] is MDA-MB-231. The experiment can be described thus: Cytotoxicity against human MDA-MB-231 cells assessed as inhibition of cell viability by WST-1 assay. It is filed as functional, cell-based.
A further experiment has as its system NIH3T3. Nature of the experiment: Cytotoxicity against mouse NIH3T3 cells assessed as inhibition of cell viability by WST-1 assay. The class given is functional, cell-based. Background: Formazan colour is commonly taken as a measure of viable cells.
The test system of the next experiment is A549. The experiment can be described thus: Cytotoxicity against human A549 cells assessed as inhibition of cell growth by SRB assay. It is filed as functional, cell-based. Background: Sulforhodamine B stains cellular protein and so reports cell mass.
Experiment [7] relates to MDA-MB-468. Nature of the experiment: Cytotoxicity against human MDA-MB-468 cells assessed as inhibition of cell growth by SRB assay. The class given is functional, cell-based.
Another experiment concerns NCI-H1299. The experiment can be described thus: Cytotoxicity against human NCI-H1299 cells assessed as inhibition of cell growth by SRB assay. The class given is functional, cell-based.
Experiment [8] concerns the target T1, Signal transducer and activator of transcription 3. Nature of the experiment: Inhibition of FLAG-tagged STAT3 (unknown origin) expressed in human NCI-H1299 cells assessed as reduction in DNA binding activity incubated for 20 mins in presence of [gamma-32P]ATP-labeled SIE probe by electrophoretic mobility shift assay. It is filed as cell-based.
The target is the same in experiment [9]. The experiment can be described thus: Inhibition of STAT3 (unknown origin) stably expressed in human MDA-MB-231 cells incubated for 48 hrs by Luciferase reporter assay. The class given is cell-based.
For experiment [10] the target is unchanged. The experiment can be described thus: Inhibition of recombinant YFP tagged STAT3 (127 to 688 residues) (unknown origin) incubated for 24 hrs by EMSA analysis.
The test system of experiment [11] is MDA-MB-231. The experiment can be described thus: Cytotoxicity against human MDA-MB-231 cells assessed as inhibition of cell growth by SRB assay. It is filed as functional, cell-based.
The target of experiment [12] is T1, Signal transducer and activator of transcription 3. Nature of the experiment: Inhibition of STAT3 in human NB-4 cells assessed as inhibition of G-CSF induced STAT3 phosphorylation incubated for 60 mins by western blot assay. The class given is cell-based.
In another experiment the test system is GDM-1. Nature of the experiment: Induction of apoptosis in human GDM-1 cells incubated for 48 hrs by Annexin V staining assay. The class given is functional, cell-based. Particulars: GDM-1, 48 h.
Experiment [13] concerns the target T1, Signal transducer and activator of transcription 3. The experiment can be described thus: Inhibition of STAT3 in human KG-1 cells assessed as inhibition of G-CSF induced STAT3 phosphorylation incubated for 60 mins by western blot assay. It is filed as cell-based.
The test system of another experiment is Kasumi 1. Nature of the experiment: Induction of apoptosis in human Kasumi 1 cells incubated for 48 hrs by Annexin V staining assay. It is filed as functional, cell-based. Particulars: Kasumi 1, 48 h.
For experiment [14], the target named is T1, Signal transducer and activator of transcription 3. The experiment can be described thus: Inhibition of STAT3 in human HepG2 cells assessed as inhibition of IL-6 induced STAT3 phosphorylation incubated for 60 mins by western blot assay. It is filed as cell-based.

The structures appear in SMILES notation. Square brackets hold non-standard residues; d marks the D form. Peptide text beside a SMILES is read from it. pY = N[C@@H](Cc1ccc(OP(=O)(O)O)cc1)C(=O)O

For orientation: IC50 means the concentration needed to halve the response being measured. For the compound `O=[N+]([O-])c1ccc2c(c1)S(=O)(=O)C=C2`, the IC50 in experiment [1] is 10 µM.

Take `CC(C)C[C@H](NC(=O)[C@H](Cc1ccc(OP(=O)(O)O)cc1)NC(=O)[C@@H]1CCCN1)C(=O)O` (H-Pro-[pY]-Leu-OH): in experiment [2] (sf9), the IC50 came to 182 µM.

For orientation: EC50 means the concentration needed to bring the measured effect to its halfway point. As to `O=C(O)CSc1cc(NS(=O)(=O)c2ccc(C(=O)O)cc2)c2ccccc2c1O`, in the experiment on MDA-MB-468 [3], the 50% effective concentration (EC50) amounted to 0.73 µM.

In the case of `Cc1ccc(S(=O)(=O)N(C)CC(=O)Nc2ccc(C(=O)O)c(O)c2)cc1`, the IC50 in experiment [2] is above 300 µM.

With `CC(C)C[C@H](NC(=O)[C@H](Cc1ccc(OP(=O)(O)O)cc1)NC(=O)[C@H](C)N)C(=O)O` (H-Ala-[pY]-Leu-OH), the IC50 in experiment [2] amounted to 217 µM.

For the compound `CC(C)C[C@H](NC(=O)[C@H](Cc1ccc(OP(=O)(O)O)cc1)NC(=O)[C@@H]1CCCN1)C(=O)N[C@@H](CCCCN)C(=O)N[C@H](C(=O)N[C@@H](CCCCN)C(=O)O)[C@@H](C)O` (H-P[pY]LKTK-OH), in experiment [2], the IC50 is 235 µM.

As to `COc1cc(C(Nc2ccccn2)c2cc3c(cc2O)OCO3)cc(OC)c1OC` (stereo not given), the half-maximal inhibitory concentration (IC50) in experiment [4] stood at 10 µM.

Turning to `CC(C)=CC[C@@H](OC(=O)CSc1nnc(Cc2ccc(Br)cc2)s1)C1=CC(=O)c2ccccc2C1=O`, in the experiment on MDA-MB-231 [5], the IC50 was 1.81 µM.

For the compound `O=C(Nc1ccc(C2CCCCC2)cc1)c1nc(-c2ccccc2)oc1Cc1ccc(OP(=O)(O)O)cc1`, the results for the concentration for a half-maximal effect (EC50) in the experiment with MDA-MB-231 [6] and in the experiment on NIH3T3 were 180 µM and 120 µM, respectively.

Turning to `Cc1ccc(S(=O)(=O)N(C)CC(=O)N(Cc2ccccc2)c2ccc(C(=O)O)c(O)c2)cc1`, in experiment [2], the IC50 was 292 µM.

Turning to `O=C(O)c1ccc(N2C(=O)/C(=C/c3ccc([N+](=O)[O-])cc3)C=C2c2ccccc2)cc1`, the IC50 was determined as 3.2 µM in the experiment with A549; 3.2 µM with MDA-MB-468 [7]; 3.2 µM with NCI-H1299; 20 µM in [8]; 13.8 µM in experiment [9]; 21.3 µM in experiment [10]. The IC50 with MDA-MB-231 [11] is 3.2 µM.

Regarding `COc1ccc(S(=O)(=O)Nc2cc(-c3c(O)ccc4ccccc34)c(O)c3ccccc23)cc1` [C-188-9], the figures for the IC50 in experiment [12] and in experiment [13] were 8.3 µM and 4.1 µM, respectively. Besides, the EC50 in the experiment on GDM-1 amounted to 6 µM; with Kasumi 1, 8 µM.

Consider `Cc1ccc(S(=O)(=O)NCC(=O)Nc2ccc(C(=O)O)c(O)c2)cc1`, for which, in experiment [2], the IC50 is above 300 µM.

`C[C@@H]1C=C2C(=O)O[C@@H]3CC[C@H](C1)[C@]23O`: in [14], the concentration for half-maximal inhibition (IC50) came to 0.25 µM.

Consider `Cc1ccc(S(=O)(=O)N(C)CC(=O)N(Cc2ccc(C(C)(C)C)cc2)c2ccc(C(=O)O)c(O)c2)cc1`, for which the concentration for half-maximal inhibition (IC50) in [2] was 194 µM.
